Laboratory results reported in patent US8252832B2, “Kinesin inhibitors as cancer therapeutics” (Novartis AG, priority 2007, dated 2012).
Where two headings read alike, the source gives them in different places. Marks after values point to notes of the source that are not given here.

Legend:
KB8.5 tumor xenograft = KB8.5 tumor xenograft model (P-gp expressing), tumor response; assay type: in vivo, mouse; conditions: for ΔT/ΔC, Day 11 (%): q4d × 3
Method: Cells were cultured for fewer than 10 passages prior to use. […] All data were expressed as mean and SEM. Between-groups comparisons for final tumor measurements were performed using the one-way ANOVA pair-wise analysis. Significance was determined using Kruskal-Wallis one-way ANOVA on Ranks, followed by appropriate post-hoc test (Dunn's Method or Tukey Test) for multiple pair-wise comparisons. Statistical analysis was carried out using SigmaStat (Systat Software Inc., San Jose, Calif.).

[1] = for Survival (alive/total) / % Max. Δ body weight, (Day): q4d × 3
Method: Experiments were performed using outbred athymic nu/nu mice (Charles River Laboratories) approximately 6-8 weeks old. Upon arrival, animals received a subcutaneous microchip implant (AVID, Folsom, La.) in the subscapular region for identification of individuals. Animals were allowed to acclimatize for 1 week before any experimental procedures began.
Compound IIa, compound IIc, compound IIa (shown below), and SB-715992 were formulated in a Captisol®-based formulation. Doses were administered intravenously (i.v.) and adjusted to each animal's body weight. Formulations were made once at the beginning of study and stored at room temperature. Clinical grade paclitaxel was purchased pre-mixed in a cremophor-based vehicle (Mayne Pharma, now Hospira, Lake Forest, Ill., catalog #NDC-6170334209) and diluted in sterile saline to provide a dose volume of 16 mL/kg for a 30 mg/kg dose administered intraperitoneally (i.p.)
For the efficacy studies, mice were enrolled with a mean tumor volume of approximately 300 mm^3. Tumor xenografts were measured in two dimensions (L and W) with digital calipers twice weekly from the start of dosing on Day 0. Tumor volume was calculated as (L×W^2)/2. Body weights were measured twice weekly and clinical observations were recorded daily. Tumor volume and body weights were captured and stored by StudyDirector software (StudyLog, South San Francisco, Calif.).

[2] = target: T1, motor domain of human KSP (Eg 5, KNSL1) (Homo sapiens, UniProt P52732); assay: Assay for determining KSP activity (microtubule/KSP ATPase, Biomol Green); assay type: biochemical; conditions: read-out: In vitro activity (IC-50 - nm)
T1 construct: KSP motor protein (i.e., the KSP motor domain); made in house
T1 sequence (P52732 18-359 limits assumed): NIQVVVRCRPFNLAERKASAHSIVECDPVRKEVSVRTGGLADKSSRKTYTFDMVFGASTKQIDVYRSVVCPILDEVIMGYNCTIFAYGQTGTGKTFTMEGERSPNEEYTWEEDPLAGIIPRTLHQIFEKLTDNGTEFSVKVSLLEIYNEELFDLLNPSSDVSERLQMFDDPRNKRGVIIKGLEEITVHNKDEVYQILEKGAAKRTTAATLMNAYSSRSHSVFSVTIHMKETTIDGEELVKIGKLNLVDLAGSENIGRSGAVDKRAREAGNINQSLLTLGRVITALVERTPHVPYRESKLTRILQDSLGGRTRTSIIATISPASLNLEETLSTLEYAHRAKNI
Method: Purified microtubules obtained from bovine brain were purchased from Cytoskeleton Inc. (Denver, Colo., USA). The motor domain of human KSP (Eg 5, KNSL1) was cloned, expressed, and purified to greater than 95% homogeneity. Biomol Green™ was purchased from Affinity Research Products Ltd. (Matford Court, Exeter, Devon, United Kingdom). Microtubules and KSP motor protein (i.e., the KSP motor domain) were diluted in assay buffer (20 mM Tris-HCl (pH 7.5), 1 mM MgCl2, 10 mM DTT and 0.25 mg/mL BSA) to a final concentration of 35 μg/mL microtubules and 45 nM KSP. The microtubule/KSP mixture was then pre-incubated at 37° C. for 10 min to promote the binding of KSP to microtubules.
To each well of the testing plate (384-well plate) containing 1.25 μL of inhibitor or test compound in DMSO (or DMSO only, in the case of controls) were added 25 μL of ATP solution (ATP diluted to a concentration of 300 μM in assay buffer) and 25 μL of the above-described microtubule/KSP solution. The plates were incubated at RT for 1 hour. Following incubation, 65 μL of Biomol Green™ (a malachite green-based dye that detects the release of inorganic phosphate) was added to each well. The plates were incubated for an additional 5-10 minutes then the absorbance at 630 nm was determined using a Victor II plate reader. The amount of absorbance at 630 nm corresponded to the amount of KSP activity in the samples. The IC50 of each inhibitor or test compound was then determined based on the decrease in absorbance at 630 nm at each concentration, via nonlinear regression using either XLFit for Excel or Prism data analysis software by GraphPad Software Inc.

[3] = In vivo pharmacokinetic parameters (clearance, half-life, AUC); conditions: for clearance: read-out: In vivo Clearance rate
KB8.5 = assay: CellTiter-Glo proliferation, 72 hours; assay type: cell-based; conditions: Homo sapiens; Epidermoid, KB8.5, 72 hours
HCT-15 = assay: CellTiter-Glo proliferation, 72 hours; assay type: cell-based; conditions: Homo sapiens; Colon, HCT-15, 72 hours
Text: (§1) Cell lines used were as follows: HCT-116 (National Cancer Institute's DCTF Tumor Repository, catalog #NCI-502568, Rockville, Md.), HCT-15 (National Cancer Institute's DCTF Tumor Repository, catalog#NCI-502711, Rockville, Md. available from American Type Tissue Collection, catalog #CLL-225), KB-3-1 (available from DSMZ, Deutsche Sammlung von Mikroorganismen und Zellkulturen GmbH (German Collection of Microorganisms and Cell Cultures—catalog number ACC 158), KB-V1 (available from DSMZ—catalog number ACC 149), AGS (available from American Type Culture Collection, Manassas Va., catalog number CRL-1739™), N87 (available from American Type Culture Collection, Manassas Va., catalog number CRL-5822), Hel92.1.7 (available from American Type Culture Collection, Manassas Va., catalog number TIB 180), K562 (available from American Type Culture Collection, Manassas Va., catalog number CRL-243™), MV4; 11 (American Tissue Culture Collection, Manassas Va., catalog number CRL-9591) and U937 (available from American Type Culture Collection, Manassas Va., catalog number CRL-1593.2).
(§2) Cells were plated in 96-well plates at densities of about 500 cells per well of a 96-well plate and allowed to grow for 24 hours. The cells were then treated with various concentrations of compounds for 72 hours. Then, 100 μl of CellTiter-Glo® reagent was added (Promega Corporation). CellTiter-Glo® is used in a homogeneous method of determining the number of viable cells using the single CellTiter-Glo® reagent to detect ATP (U.S. Pat. Nos. 6,602,677 and 7,241,584) (see Promega product catalog #G7570). Following the addition of the CellTiter-Glo® reagent, the cells were incubated in the dark for 30 minutes. The amount of luminescence was determined for each well using a Wallac Trilux plate reader, which correlates with the number of cells per well. The number of viable cells in the wells that receive only DMSO (0.5%) served as an indication of 0% inhibition, while wells without cells served as 100% inhibition of cell growth. […] This broad activity is consistent with a compound that is a mitotic inhibitor.

KB3.1 = assay: CellTiter-Glo proliferation, 72 hours; assay type: cell-based; conditions: Homo sapiens, KB 3-1; Epidermoid, KB3.1, 72 hours
Text: as §1, §2

Q: With `C[C@H](O)C(=O)N(CC[C@H](N)CF)[C@@H](c1nc(-c2cc(F)ccc2F)cn1Cc1ccccc1)C(C)(C)C` [Compound IIc] as the molecule, how does the “percent ΔT/ΔC” value (KB8.5 tumor xenograft; 1.25 mg/kg, q4d×3, day 11) read?
A: The value was 39%.

Q: What about the “ΔT/ΔC, Day 11 (%)” value (KB8.5 tumor xenograft; Table 14 study, 1.25 mg/kg, i.v., KB8.5 xenograft, female nu/nu mice, p < 0.05 versus vehicle) of the same molecule?
A: The value was 39* %.

Q: What about the body weight ([1]; 2.5 mg/kg treated group) of the same molecule?
A: The body weight was “significant weight loss”.

Q: And the “Survival (alive/total)” value ([1]; Table 14 study, 1.25 mg/kg, i.v.)?
A: Its value is 9/9.

Q: What about the “% Max. Δ body weight, (Day)” value ([1]; Table 14 study, 1.25 mg/kg, i.v., D11) of the same molecule?
A: The value was −5 (D11) %.

Q: And the “% Max. Δ body weight, (Day)” value ([1]; Table 14 study, 2.5 mg/kg, i.v., D8)?
A: The value was −10 (D8) %.

Q: What about the “Survival (alive/total)” value ([1]; Table 14 study, 2.5 mg/kg, i.v., due to 4/9 mice having 15% weight loss or more) of the same molecule?
A: The value was “All down on Day 8”.

Q: And the IC50 [2]?
A: The IC50 was 0.9 nM.

Q: What about the AUC [3] of the same molecule?
A: Its AUC is 1700 ng·h/mL.

Q: And the half-life [3]?
A: Its half-life is 1.83 h.

Q: And the clearance [3]?
A: The clearance was 47 mL/min/kg.

Q: Which “efficacy in the KB8.5 tumor xenograft model” value (KB8.5 tumor xenograft; 5 mg/kg, q4d×3) does the source give for `COCC(=O)N(CC[C@H](N)CF)[C@@H](c1nc(-c2cc(F)ccc2F)cn1Cc1ccccc1)C(C)(C)C` [Compound Ia] here?
A: The value was “not efficacious”.

Q: What about the “ΔT/ΔC, Day 11 (%)” value (KB8.5 tumor xenograft; Table 15 study, 1.25 mg/kg, i.v., not statistically different from vehicle) of the same molecule?
A: The value was 84%.

Q: What about the “ΔT/ΔC, Day 11 (%)” value (KB8.5 tumor xenograft; Table 15 study, 2.5 mg/kg, i.v., not statistically different from vehicle) of the same molecule?
A: The value was 61%.

Q: What about the “ΔT/ΔC, Day 11 (%)” value (KB8.5 tumor xenograft; Table 15 study, 5 mg/kg, iv., not statistically different from vehicle) of the same molecule?
A: The value was 66%.

Q: What about the GI50 (KB8.5) of the same molecule?
A: The GI50 was 0.4 nM.

Q: What about the GI50 (HCT-15) of the same molecule?
A: The GI50 was 0.3 nM.

Q: What about the GI50 (KB3.1) of the same molecule?
A: The GI50 was 0.4 nM.

Q: And the “Survival (alive/total)” value ([1]; Table 15 study, 1.25 mg/kg, i.v.)?
A: Its value is 10/10.

Q: What about the “% Max. Δ body weight, (Day)” value ([1]; Table 15 study, 1.25 mg/kg, i.v., D11) of the same molecule?
A: The value was 1 (D11) %.

Q: And the “Survival (alive/total)” value ([1]; Table 15 study, 2.5 mg/kg, i.v.)?
A: The value was 10/10.

Q: What about the “% Max. Δ body weight, (Day)” value ([1]; Table 15 study, 2.5 mg/kg, i.v., D4) of the same molecule?
A: Its value is −0.4 (D4) %.

Q: What about the “Survival (alive/total)” value ([1]; Table 15 study, 5 mg/kg, iv.) of the same molecule?
A: The value was 10/10.

Q: And the “% Max. Δ body weight, (Day)” value ([1]; Table 15 study, 5 mg/kg, iv., D4)?
A: Its value is −2 (D4) %.

Q: And the IC50 [2]?
A: Its IC50 is 0.6 nM.

Q: What about the AUC [3] of the same molecule?
A: Its AUC is 2670 ng·h/mL.

Q: What about the half-life [3] of the same molecule?
A: Its half-life is 1.95 h.

Q: What about the clearance [3] of the same molecule?
A: The clearance was 29 mL/min/kg.

Q: For `CC(=O)N(CC[C@H](N)CF)[C@@H](c1nc(-c2cc(F)ccc2F)cn1Cc1ccccc1)C(C)(C)C` [Compound Ib], which IC50 [2] is on record?
A: The IC50 was 22 nM.

Q: And the AUC [3]?
A: The AUC was 867 ng·h/mL.

Q: What about the half-life [3] of the same molecule?
A: Its half-life is 1.5 h.

Q: What about the clearance [3] of the same molecule?
A: Its clearance is 94 mL/min/kg.
